The source of these data is BindingDB's records for PubMed 2078271 (Sorbonne University, 1990).

pKi: −log10 of the molar value.

The target of the assay is T1, 5-hydroxytryptamine receptor 1A (Homo sapiens, UniProt P08908).
T1 sequence (P08908 whole entry): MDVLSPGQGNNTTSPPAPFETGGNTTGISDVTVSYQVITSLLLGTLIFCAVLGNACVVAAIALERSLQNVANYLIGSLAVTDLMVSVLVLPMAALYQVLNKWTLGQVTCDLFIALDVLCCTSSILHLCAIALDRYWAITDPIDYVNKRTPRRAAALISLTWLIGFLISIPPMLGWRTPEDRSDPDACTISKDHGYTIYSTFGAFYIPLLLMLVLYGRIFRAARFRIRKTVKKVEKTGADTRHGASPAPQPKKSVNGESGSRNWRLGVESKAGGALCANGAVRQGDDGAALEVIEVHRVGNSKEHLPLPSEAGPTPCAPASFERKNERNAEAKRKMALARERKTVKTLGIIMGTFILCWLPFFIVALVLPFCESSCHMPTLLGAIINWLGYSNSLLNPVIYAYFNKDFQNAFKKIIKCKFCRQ
As usually defined, the pKi is −log10 of the Ki, conventionally taken in molar units. A low value points to a large Ki. `COc1ccccc1N1CCN(CCN(C(=O)c2ccc(I)cc2)c2ccccn2)CC1` gave a pKi of 9.49.
`CC(C)(C)NCC(O)COc1ccccc1C1CCCC1` (single isomer, unassigned; (-)) [NSC_37464] gave a pKi of 8.10.
The same measure for `CC(C)(C)NCC(O)COc1cccc2c1SCCC2` (single isomer, unassigned; (-)) [TERTATOLOL(-)]: 8.00.
The same measure for `O=C1c2ccccc2S(=O)(=O)N1CCCCN1CCN(c2ncccn2)CC1` [1,1-Dioxo-2-[4-(4-pyrimidin-2-yl-piperazin-1-yl)-butyl]-1,2-dihydro-1lambda*6*-benzo[d]isothiazol-3-one]: 8.00; for `COc1c(O)c(O)cc2c1CC(N)CC2` (stereo not drawn) [5-OME-3-ADTN]: 9.00.
In the case of `FC(F)(F)c1cccc(C2=CCN(CCc3ccc4ccccc4c3)CC2)c1` [CAS_90494-79-4], the negative logarithm of the Ki (pKi) is 8.70.
The same measure for `Clc1cnn(CCCCN2CCN(c3ncccn3)CC2)c1` [CAS_132449-46-8]: 7.30; for `COC(=O)c1cc2c(N3CCN(CCCCN4C(=O)c5ccccc5S4(=O)=O)CC3)cccc2[nH]1` [CAS_141533-35-9]: 9.15.
The same measure for `O=C(NCCN1CCN(c2cccc3c2OCC(CO)O3)CC1)c1ccc(F)cc1` (stereo not drawn) [FLESINOXAN]: 8.52; for `CCCN(CCC)CCc1c[nH]c2ccc(C(N)=O)cc12` [NN-DIPROP-5-CT]: 9.70; for `CCCN(CCCCN1C(=O)CC2(CCCC2)CC1=O)C1COc2cccc(OC)c2C1` (stereo not drawn) [NSC_121851]: 9.70.
The figure for `COc1ccccc1N1CCN(CCCNc2c(C)c(=O)n(C)c(=O)n2C)CC1` [Urapidil-5-methyl] is 9.46; for `COc1ccccc1N1CCN(C[C@@H](C(=O)NC(C)(C)C)c2ccccc2)CC1` [WAY 100135] it is 7.70.
